Reference: the supplement of paper PMC13380429
± gives the standard deviation of the averaged measurements.

How the values were obtained:
Conditions in all cases: 72 h
Caco-2 [1] = experiment: cell viability relative to DMSO; higher = less toxic
Calu-3 [2] = experiment: as above
HepG2 [3] = experiment: as above
U2OS [4] = experiment: as above
Vero E6 [5] = experiment: as above
Caco-2 [6] = experiment: relative viability EC50 (midpoint between 100% and the lowest measured viability); higher = less toxic
Calu-3 [7] = experiment: as above
HepG2 [8] = experiment: as above
U2OS [9] = experiment: as above
Vero E6 [10] = experiment: as above
Caco-2 [11] = experiment: drug sensitivity score (DSS) for viability; higher = more toxic; extreme values may be limits of the assay
Calu-3 [12] = experiment: as above
HepG2 [13] = experiment: as above
U2OS [14] = experiment: as above
Vero E6 [15] = experiment: as above

Row | Structure (SMILES) | cell viability (Caco-2 [1]; 1 nM) [%] | cell viability (Caco-2 [1]; 10 nM) [%] | cell viability (Caco-2 [1]; 100 nM) [%] | cell viability (Caco-2 [1]; 1000 nM) [%] | cell viability (Caco-2 [1]; 10000 nM) [%] | cell viability (Calu-3 [2]; 1 nM) [%] | cell viability (Calu-3 [2]; 10 nM) [%] | cell viability (Calu-3 [2]; 100 nM) [%] | cell viability (Calu-3 [2]; 1000 nM) [%] | cell viability (Calu-3 [2]; 10000 nM) [%] | cell viability (HepG2 [3]; 1 nM) [%] | cell viability (HepG2 [3]; 10 nM) [%] | cell viability (HepG2 [3]; 100 nM) [%] | cell viability (HepG2 [3]; 1000 nM) [%] | cell viability (HepG2 [3]; 10000 nM) [%] | cell viability (U2OS [4]; 1 nM) [%] | cell viability (U2OS [4]; 10 nM) [%] | cell viability (U2OS [4]; 100 nM) [%] | cell viability (U2OS [4]; 1000 nM) [%] | cell viability (U2OS [4]; 10000 nM) [%] | cell viability (Vero E6 [5]; 1 nM) [%] | cell viability (Vero E6 [5]; 10 nM) [%] | cell viability (Vero E6 [5]; 100 nM) [%] | cell viability (Vero E6 [5]; 1000 nM) [%] | cell viability (Vero E6 [5]; 10000 nM) [%] | relative viability EC50 (Caco-2 [6]) [µM] | relative viability EC50 (Calu-3 [7]) [µM] | relative viability EC50 (HepG2 [8]) [µM] | relative viability EC50 (U2OS [9]) [µM] | relative viability EC50 (Vero E6 [10]) [µM] | drug sensitivity score (Caco-2 [11]) | drug sensitivity score (Calu-3 [12]) | drug sensitivity score (HepG2 [13]) | drug sensitivity score (U2OS [14]) | drug sensitivity score (Vero E6 [15])
1 | O=C(O)CCc1ccc(NCc2cccc3c2CCCN3CCOc2ccccc2)cc1F | 106 | 96.2 | 101 | 106 | 96.4 | 93.2 | 97.4 | 91.6 | 94.8 | 99.6 | 97.9 | 101 | 100 | 100 | 95 | 101 | 96.5 | 99 | 97.4 | 104 | 97.5 | 98.2 | 97.4 | 98.6 | 96 | > 10 | > 10 | > 10 | > 10 | > 10 | 0 | 0 | 0 | 0 | 0
2 | Oc1c(I)cc(I)cc1I [AM-24] | 99.5 | 97.6 | 93 | 88.5 | 101 | 96.7 | 95 | 104 | 97.3 | 101 | 95.4 | 103 | 89.9 | 108 | 102 | 97.8 | 97.8 | 103 | 97.7 | 104 | 96.8 | 103 | 99.6 | 104 | 97.2 | > 10 | > 10 | > 10 | > 10 | > 10 | 0 | 0 | 0 | 0 | 0
3 | CCn1c2ccccc2c2cc(CNCc3ccccc3OC)ccc21 [HLCL-61] | 103 | 92 | 94.6 | 107 | 101 | 111 | 99.5 | 95.7 | 106 | 87.9 | 106 | 95.4 | 93.5 | 95.6 | 79.2 | 100 | 96.6 | 99.2 | 102 | 94.9 | 91.3 | 93.2 | 88.2 | 88.8 | 93.5 | > 10 | > 10 | > 10 | > 10 | > 10 | 0 | 0 | 1.1 | 0 | 0.1
4 | Clc1ccc(C(OCCN2CCCCC2)c2ccccc2)cc1 (stereo not given) [cloperastine] | 99 | 94.9 | 114 | 116 | 79.9 | 101 | 93.5 | 129 | 100 | 100 | 111 | 109 | 115 | 96.4 | 84.1 | 99.4 | 96.7 | 97.1 | 99.6 | 95.4 | 93.7 | 96.4 | 100 | 97 | 86.6 | > 10 | > 10 | > 10 | > 10 | > 10 | 0.3 | 0 | 0.6 | 0 | 0.3
5 | N[C@@H](C(=O)O)c1ccc(C(=O)O)c(C(=O)O)c1 (racemic) [3,4-DCPG-(+/-)] | 101 ± 5.2 | 94.9 ± 2.8 | 103 ± 3.2 | 96.6 ± 9.6 | 97.4 ± 2.9 | 93.4 ± 4.4 | 99.8 ± 2.7 | 95.7 ± 3.2 | 93 ± 1.3 | 95.3 ± 1.3 | 88.3 ± 15 | 99.2 ± 3.1 | 89.5 ± 20 | 102 ± 6.3 | 97.7 ± 20 | 99.5 ± 2.4 | 95.4 ± 0.42 | 103 | 97.6 ± 3.8 | 100 ± 3.4 | 96.8 ± 6 | 101 ± 3.4 | 96 ± 2.5 | 100 ± 3.2 | 105 ± 4.1 | > 10 | > 10 | > 10 | > 10 | > 10 | 0 | 0 | 0 | 0 | 0
6 | C[N+]1([O-])[C@@H]2C[C@@H](OC(=O)[C@H](CO)c3ccccc3)C[C@H]1[C@@H]1O[C@@H]12 (stereo not given in full) [scopolamine-N-oxide] | 88.4 | 97.6 | 85.9 | 96.6 | 102 | 99.7 | 95.4 | 100 | 102 | 94.5 | 105 | 93.1 | 107 | 107 | 108 | 93.9 | 96.5 | 93.9 | 98.5 | 104 | 93.1 | 83.9 | 104 | 97.4 | 107 | > 10 | > 10 | > 10 | > 10 | > 10 | 0 | 0 | 0 | 0 | 0
7 | C=CCNc1c(O)cc2c(O)c1C[C@@H](C)C[C@H](OC)[C@H](O)[C@@H](C)/C=C(\C)[C@H](OC(N)=O)[C@@H](OC)/C=C\C=C(/C)C(=O)N2 [retaspimycin] | 92.1 | 101 | 94 | 60 | 27.8 | 94.2 | 89.1 | 84.5 | 46.2 | 41.2 | 97.3 | 95.6 | 6.2 | 1.8 | 2.9 | 96.5 | 99 | 88 | 5.2 | 2.1 | 99.3 | 100 | 104 | 53.3 | 25.5 | 0.819 | 0.199 | 0.0315 | 0.232 | 0.815 | 8.8 | 11.5 | 30 | 19.2 | 9.7
8 | NS(=O)(=O)c1cc(Cl)c(Cl)c(S(N)(=O)=O)c1 [diclofenamide] | 102 | 104 | 112 | 104 | 98.9 | 88.2 | 81.4 | 87.1 | 91 | 88.9 | 97.6 | 103 | 100 | 97 | 101 | 102 | 98 | 106 | 98.7 | 105 | 95.8 | 102 | 96 | 99.1 | 95.3 | > 10 | > 10 | > 10 | > 10 | > 10 | 0 | 0 | 0 | 0 | 0
9 | c1ccc(CN2CCC3(CCc4ccccc43)CC2)cc1 | 96.9 | 97.5 | 99 | 93 | 89.6 | 99.6 | 98.5 | 108 | 95.4 | 96.5 | 95.1 | 101 | 91.9 | 106 | 102 | 102 | 102 | 101 | 99.6 | 99.6 | 97.1 | 97 | 92.8 | 94.4 | 104 | > 10 | > 10 | > 10 | > 10 | > 10 | 0 | 0 | 0 | 0 | 0
10 | CCNC(C)CN1CCc2c(c(=O)oc3ccccc23)C1 (stereo not given) [CI-923] | 103 | 102 | 103 | 97.9 | 93.6 | 99.5 | 109 | 100 | 111 | 99.1 | 99.6 | 93.1 | 105 | 97.5 | 109 | 99 | 99.3 | 95.9 | 101 | 95.8 | 99.7 | 103 | 104 | 95.9 | 94.5 | > 10 | > 10 | > 10 | > 10 | > 10 | 0 | 0 | 0 | 0 | 0
11 | CCCCN1CCC(CCC(=O)c2cc(Cl)c(N)cc2OC)CC1 | 104 | 100 | 97.3 | 92.7 | 95.2 | 101 | 99.5 | 101 | 98.3 | 109 | 95.5 | 98.2 | 96.9 | 82.8 | 83.5 | 104 | 93.6 | 95.8 | 92.7 | 94.1 | 101 | 102 | 99.2 | 101 | 94.1 | > 10 | > 10 | > 10 | > 10 | > 10 | 0 | 0 | 2.4 | 0 | 0
12 | CCOC(=O)C1=C(C)NC(=S)NC1c1cccc(O)c1 (stereo not given) [monastrol] | 103 | 94.6 | 94.1 | 96 | 96.8 | 89.7 | 95.1 | 95.6 | 100 | 103 | 99.3 | 107 | 96.2 | 99.4 | 101 | 103 | 99 | 103 | 98.7 | 104 | 104 | 108 | 102 | 97.6 | 97.9 | > 10 | > 10 | > 10 | > 10 | > 10 | 0 | 0 | 0 | 0 | 0
13 | Cc1c(Cc2ccc3ccccc3n2)c2cc(F)ccc2n1CC(=O)O | 94.6 | 99.4 | 98.7 | 98.4 | 109 | 95.8 | 108 | 96.8 | 110 | 111 | 119 | 96.9 | 109 | 108 | 105 | 94.7 | 101 | 95.4 | 97.9 | 108 | 102 | 96.7 | 99.5 | 97.8 | 101 | > 10 | > 10 | > 10 | > 10 | > 10 | 0 | 0 | 0 | 0 | 0
14 | CCN(CC)C(=O)c1ccc(C2=CC3(CCNCC3)Oc3cccc(O)c32)cc1 [ADL5859] | 93 | 99.8 | 91.9 | 97.3 | 110 | 92.9 | 96.9 | 91.8 | 105 | 105 | 103 | 99.5 | 104 | 100 | 101 | 95.4 | 98.2 | 100 | 103 | 104 | 94.1 | 104 | 94.9 | 98.5 | 108 | > 10 | > 10 | > 10 | > 10 | > 10 | 0 | 0 | 0 | 0 | 0
